Assays:
[1] = target: T1, Interstitial collagenase (Homo sapiens, UniProt P03956); test: Inhibition of trypsin-activated recombinant human collagenase 1 preincubated with protein followed by addition of DNP-Pro-Cha-Gly-Cys(Me)-His-Ala-Lys(NMA)-NH2 as substrate measured after 20 mins by fluorescence analysis
T1 sequence (P03956 whole entry): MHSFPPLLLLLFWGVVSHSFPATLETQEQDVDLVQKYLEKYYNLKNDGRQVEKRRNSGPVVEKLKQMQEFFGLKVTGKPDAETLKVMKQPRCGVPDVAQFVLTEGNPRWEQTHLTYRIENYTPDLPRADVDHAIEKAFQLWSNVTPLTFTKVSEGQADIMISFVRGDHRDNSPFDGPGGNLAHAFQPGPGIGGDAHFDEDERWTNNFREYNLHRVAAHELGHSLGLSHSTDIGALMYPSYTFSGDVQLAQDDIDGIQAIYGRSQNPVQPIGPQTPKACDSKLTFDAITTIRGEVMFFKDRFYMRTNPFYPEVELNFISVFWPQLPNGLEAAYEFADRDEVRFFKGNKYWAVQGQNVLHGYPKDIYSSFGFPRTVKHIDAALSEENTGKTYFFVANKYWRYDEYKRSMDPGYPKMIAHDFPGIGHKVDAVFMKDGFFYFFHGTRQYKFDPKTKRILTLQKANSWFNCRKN

[2] = target: T2, Aggrecanase (Sus scrofa, UniProt F1S1A7+F1SHP0); test: Inhibition of aggrecanase in primary porcine chondrocytes assessed as inhibition of 35S-proteoglycan release measured after 9 to 12 hrs by liquid scintillation counting method; type: cell-based
T2 sequence (F1S1A7 whole entry): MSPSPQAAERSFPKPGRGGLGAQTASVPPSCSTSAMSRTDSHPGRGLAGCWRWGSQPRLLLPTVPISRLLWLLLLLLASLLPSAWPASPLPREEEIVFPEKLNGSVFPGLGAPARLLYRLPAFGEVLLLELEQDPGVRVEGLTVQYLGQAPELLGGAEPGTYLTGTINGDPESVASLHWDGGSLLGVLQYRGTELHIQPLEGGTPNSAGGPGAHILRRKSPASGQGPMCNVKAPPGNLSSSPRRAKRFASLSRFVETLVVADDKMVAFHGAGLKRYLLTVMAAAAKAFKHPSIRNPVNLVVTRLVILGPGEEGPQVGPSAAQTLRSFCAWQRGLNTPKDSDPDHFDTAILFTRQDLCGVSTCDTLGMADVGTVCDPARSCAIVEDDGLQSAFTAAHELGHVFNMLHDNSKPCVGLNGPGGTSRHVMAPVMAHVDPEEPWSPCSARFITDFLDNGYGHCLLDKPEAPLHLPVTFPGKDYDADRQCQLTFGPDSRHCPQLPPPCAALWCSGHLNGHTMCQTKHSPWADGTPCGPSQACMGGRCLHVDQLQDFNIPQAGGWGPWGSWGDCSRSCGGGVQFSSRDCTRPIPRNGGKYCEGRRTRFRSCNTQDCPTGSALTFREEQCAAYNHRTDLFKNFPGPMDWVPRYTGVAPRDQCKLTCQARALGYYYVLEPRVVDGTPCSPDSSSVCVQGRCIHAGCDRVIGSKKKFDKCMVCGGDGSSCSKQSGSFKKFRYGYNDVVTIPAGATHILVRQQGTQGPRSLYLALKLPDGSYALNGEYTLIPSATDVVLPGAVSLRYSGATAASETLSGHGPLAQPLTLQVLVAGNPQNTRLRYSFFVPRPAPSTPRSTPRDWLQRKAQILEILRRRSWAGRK
T2 sequence (F1SHP0 whole entry): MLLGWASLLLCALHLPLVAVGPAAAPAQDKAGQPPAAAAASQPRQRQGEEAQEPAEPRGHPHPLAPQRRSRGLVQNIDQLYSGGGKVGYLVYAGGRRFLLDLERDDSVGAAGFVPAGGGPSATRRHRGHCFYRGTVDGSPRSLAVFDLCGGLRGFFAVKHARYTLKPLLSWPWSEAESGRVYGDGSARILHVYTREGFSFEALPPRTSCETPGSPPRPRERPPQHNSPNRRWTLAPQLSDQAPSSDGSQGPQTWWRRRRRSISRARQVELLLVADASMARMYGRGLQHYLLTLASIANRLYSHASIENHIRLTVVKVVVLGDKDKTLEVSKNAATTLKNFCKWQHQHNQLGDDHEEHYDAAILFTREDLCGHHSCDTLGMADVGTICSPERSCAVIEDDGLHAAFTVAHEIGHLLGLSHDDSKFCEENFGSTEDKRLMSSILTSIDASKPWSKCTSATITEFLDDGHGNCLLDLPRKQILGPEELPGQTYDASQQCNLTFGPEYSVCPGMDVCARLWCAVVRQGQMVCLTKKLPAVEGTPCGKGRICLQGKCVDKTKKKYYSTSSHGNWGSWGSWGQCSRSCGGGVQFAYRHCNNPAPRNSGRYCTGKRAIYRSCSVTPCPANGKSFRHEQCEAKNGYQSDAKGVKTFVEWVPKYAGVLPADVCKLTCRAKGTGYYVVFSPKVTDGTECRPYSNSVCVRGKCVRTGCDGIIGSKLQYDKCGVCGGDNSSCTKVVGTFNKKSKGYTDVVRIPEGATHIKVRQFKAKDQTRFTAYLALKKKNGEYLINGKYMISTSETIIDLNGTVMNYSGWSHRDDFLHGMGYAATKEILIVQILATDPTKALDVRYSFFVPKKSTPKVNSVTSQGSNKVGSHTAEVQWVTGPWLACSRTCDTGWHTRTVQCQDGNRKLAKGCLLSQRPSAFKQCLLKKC

[3] = target: Disintegrin and metalloproteinase domain-containing protein 17 (Homo sapiens, UniProt P78536); test: Inhibition of TACE in human mononuclear cells assessed as inhibition of LPS-induced TNF-alpha production measured after 4 hrs in presence of LPS by ELISA; type: cell-based
Chain of Disintegrin and metalloproteinase domain-containing protein 17 (P78536 whole entry, the tested form may be a part): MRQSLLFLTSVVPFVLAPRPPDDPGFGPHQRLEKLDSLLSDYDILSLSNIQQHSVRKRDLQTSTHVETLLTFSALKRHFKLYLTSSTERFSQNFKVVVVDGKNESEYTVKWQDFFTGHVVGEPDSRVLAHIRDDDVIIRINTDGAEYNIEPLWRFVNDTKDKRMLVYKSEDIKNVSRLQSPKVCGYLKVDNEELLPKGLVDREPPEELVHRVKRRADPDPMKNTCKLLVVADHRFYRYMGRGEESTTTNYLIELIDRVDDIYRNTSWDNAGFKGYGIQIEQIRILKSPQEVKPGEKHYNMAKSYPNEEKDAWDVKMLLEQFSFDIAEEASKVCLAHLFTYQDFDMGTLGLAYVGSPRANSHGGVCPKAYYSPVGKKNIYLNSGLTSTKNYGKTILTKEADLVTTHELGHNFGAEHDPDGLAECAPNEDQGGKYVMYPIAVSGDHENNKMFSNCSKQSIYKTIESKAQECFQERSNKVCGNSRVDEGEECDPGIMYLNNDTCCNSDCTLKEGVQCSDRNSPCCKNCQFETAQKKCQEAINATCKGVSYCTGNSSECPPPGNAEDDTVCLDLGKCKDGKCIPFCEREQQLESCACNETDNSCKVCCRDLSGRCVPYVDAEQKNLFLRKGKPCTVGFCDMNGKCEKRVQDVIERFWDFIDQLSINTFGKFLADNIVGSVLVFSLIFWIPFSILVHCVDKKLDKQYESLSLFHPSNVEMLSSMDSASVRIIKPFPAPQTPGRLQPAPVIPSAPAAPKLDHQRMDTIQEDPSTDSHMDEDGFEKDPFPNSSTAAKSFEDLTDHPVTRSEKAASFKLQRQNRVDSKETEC

[4] = target: Collagenase 3 (Homo sapiens, UniProt P45452); test: Inhibition of APMA-activated recombinant human collagenase 3 preincubated with protein followed by addition of DNP-Pro-Cha-Gly-Cys(Me)-His-Ala-Lys(NMA)-NH2 as substrate measured every 5 mins for 1 hr by fluorescence analysis

Row | SMILES | IC50 [1] [nM] | IC50 [2] [nM] | IC50 [3] [nM] | IC50 [4] [nM]
1 | C[C@@]1(O)CCCN(S(=O)(=O)c2ccc(OCc3ccc(F)cc3Cl)cc2)[C@H]1C(=O)NO | 200 to 1000 | < 10 | 10000 to 20000 | < 10
2 | Cc1cc(F)ccc1COc1ccc(S(=O)(=O)N2CCC[C@@](C)(O)[C@@H]2C(=O)NO)cc1 |  | < 10 | < 10000 | < 10
3 | Cc1cc(F)ccc1COc1ccc(S(=O)(=O)N2CC(=O)N[C@@H](C)[C@@H]2C(=O)NO)cc1 | > 1000 | < 10 | < 10000 | 10 to 20
4 | Cc1ccc(Cl)cc1COc1ccc(S(=O)(=O)N2C[C@H](O)CC(C)(C)[C@@H]2C(=O)NO)cc1 | > 1000 | 10 to 20 | 10000 to 20000 | 20 to 200
5 | C[C@@]1(O)CCCN(S(=O)(=O)c2ccc(OCc3ccc(Cl)cc3Cl)cc2)[C@H]1C(=O)NO | 200 to 1000 | < 10 | 10000 to 20000 | < 10
6 | CC1(C)C[C@@H](O)CN(S(=O)(=O)c2ccc(OCc3ccc(F)cc3Cl)cc2)[C@H]1C(=O)NO | 200 to 1000 | < 10 | 10000 to 20000 | < 10
7 | CNC(=O)N1CCN(S(=O)(=O)c2ccc(OCc3ccc(F)cc3F)cc2)[C@@H](C(=O)NO)[C@@H]1C | 200 to 1000 | 10 to 20 | 10000 to 20000 | < 10
8 | Cc1cc(F)ccc1COc1ccc(S(=O)(=O)N2C[C@H](O)CC(C)(C)[C@@H]2C(=O)NO)cc1 | 200 to 1000 | < 10 | < 10000 | < 10
9 | CC1(C)C[C@@H](O)CN(S(=O)(=O)c2ccc(OCc3ccc(Cl)cc3Cl)cc2)[C@H]1C(=O)NO | 200 to 1000 | < 10 | 20000 to 40000 | < 10
10 | Cc1ccc(F)cc1COc1ccc(S(=O)(=O)N2CCC[C@@](C)(O)[C@@H]2C(=O)NO)cc1 |  | 10 to 20 | < 10000 | < 10
11 | CC1(C)C[C@@H](O)CN(S(=O)(=O)c2ccc(OCc3cc(Cl)ccc3F)cc2)[C@H]1C(=O)NO | 200 to 1000 | 10 to 20 | 10000 to 20000 | < 10
12 | C[C@@]1(O)CCCN(S(=O)(=O)c2ccc(OCc3ccc(F)cc3F)cc2)[C@H]1C(=O)NO | 200 to 1000 | 10 to 20 | 10000 to 20000 | < 10
13 | Cc1ccc(F)cc1COc1ccc(S(=O)(=O)N2CC(=O)N[C@@H](C)[C@@H]2C(=O)NO)cc1 | > 1000 | < 10 | < 10000 | 10 to 20

More lines, now with the values ahead:

Row | IC50 [1] [nM] | IC50 [2] [nM] | IC50 [3] [nM] | IC50 [4] [nM] | SMILES
14 | 20 to 200 | 10 to 20 | 20000 to 40000 |  | C[C@@]1(O)CCCN(S(=O)(=O)c2ccc(OCc3ccccc3F)cc2)[C@H]1C(=O)NO
15 | > 1000 | < 10 | < 10000 | < 10 | CNC(=O)N1CCN(S(=O)(=O)c2ccc(OCc3cc(F)ccc3C)cc2)[C@@H](C(=O)NO)[C@@H]1C
16 |  |  |  | 1 | CNC(=O)[C@H](Cc1ccc(OC)cc1)NC(=O)[C@@H](CC(=O)NO)CC(C)C
17 | 20 to 200 | < 10 | 10000 to 20000 | < 10 | CC1(C)C[C@@H](O)CN(S(=O)(=O)c2ccc(OCc3ccc(F)cc3)cc2)[C@H]1C(=O)NO
18 |  |  | 3000 |  | NS(=O)(=O)c1ccc(CCNC(=O)[C@H](CC2CCCCC2)NC(=O)[C@H](CCCc2ccccc2)CC(=O)NO)cc1
19 | 200 to 1000 | 10 to 20 | < 10000 | < 10 | Cc1ccccc1COc1ccc(S(=O)(=O)N2CCC[C@](C)(O)[C@@H]2C(=O)NO)cc1
20 | > 1000 | < 10 | < 10000 | 20 to 200 | Cc1ccccc1COc1ccc(S(=O)(=O)N2CCN(C(=O)CN)[C@@H](C)[C@@H]2C(=O)NO)cc1
21 | > 1000 | 10 to 20 | < 10000 | < 10 | Cc1c(F)cccc1COc1ccc(S(=O)(=O)N2CCC[C@@](C)(O)[C@@H]2C(=O)NO)cc1
22 | 200 to 1000 | < 10 | < 10000 | < 10 | Cc1ccccc1COc1ccc(S(=O)(=O)N2CCC[C@@](C)(O)[C@@H]2C(=O)NO)cc1
23 | 200 to 1000 | 10 to 20 | < 10000 | < 10 | CC1(C)C[C@@H](O)CN(S(=O)(=O)c2ccc(OCc3ccccc3Br)cc2)[C@H]1C(=O)NO
24 | > 1000 | < 10 | < 10000 | 20 to 200 | CCc1ccccc1COc1ccc(S(=O)(=O)N2CCN(C(=O)NC)[C@@H](C)[C@@H]2C(=O)NO)cc1
25 | 200 to 1000 | < 10 | < 10000 | < 10 | Cc1c(F)cccc1COc1ccc(S(=O)(=O)N2C[C@H](O)CC(C)(C)[C@@H]2C(=O)NO)cc1
26 |  | < 10 | < 10000 | < 10 | C[C@@]1(O)CCCN(S(=O)(=O)c2ccc(OCc3ccccc3Cl)cc2)[C@H]1C(=O)NO

— ChEMBL document CHEMBL3880381, “Selective inhibitors of aggrecanase in osteoarthritis treatment” (2001)
